Measurements: PubChem BioAssay (NCI)
“And” between values parts separate entries of the source, which are not always exact repeats. Equal values may be shown once.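 Growth conditions: 96-well plates. Treatment: test compound, 48 hours, 5 concentrations. Analysis: linear interpolation between bracketing concentrations; unreached endpoints set to highest concentration. At the GI50, growth is halved. At the TGI there is no net growth.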

What was measured:
Experiment in all cases: NCI-60 cell line screen, 48 h
SK-MEL-5 melanoma = system: SK-MEL-5 melanoma
HOP-92 NSCLC = system: HOP-92 NSCLC
CAKI-1 renal = system: CAKI-1 renal
HOP-62 NSCLC = system: HOP-62 NSCLC
OVCAR-5 ovarian = system: OVCAR-5 ovarian
786-0 renal = system: 786-0 renal
EKVX NSCLC = system: EKVX NSCLC
CCRF-CEM leukemia = system: CCRF-CEM leukemia
IGROV1 ovarian = system: IGROV1 ovarian
T-47D breast = system: T-47D breast

CCCCOC(=O)CNC(=O)OC/C=C/C#CC#C/C=C/COC(=O)NCC(=O)OCCCC
GI50 (SK-MEL-5 melanoma): > 100 µM
TGI (SK-MEL-5 melanoma): > 100 µM
GI50 (HOP-92 NSCLC): > 100 µM
TGI (HOP-92 NSCLC): > 100 µM
GI50 (CAKI-1 renal): > 100 µM
TGI (CAKI-1 renal): > 100 µM
GI50 (HOP-62 NSCLC): > 100 µM
TGI (HOP-62 NSCLC): > 100 µM
GI50 (OVCAR-5 ovarian): > 100 µM
TGI (OVCAR-5 ovarian): > 100 µM
GI50 (786-0 renal): > 10 µM
TGI (786-0 renal): > 100 µM
GI50 (EKVX NSCLC): > 100 µM
TGI (EKVX NSCLC): > 100 µM
GI50 (CCRF-CEM leukemia): > 100 µM
TGI (CCRF-CEM leukemia): > 100 µM
GI50 (IGROV1 ovarian): > 100 µM
TGI (IGROV1 ovarian): > 100 µM

Cc1c2n(c(=O)[nH]c1=O)C1OC(CO)C(O2)C1O (centres undefined)
TGI (SK-MEL-5 melanoma): > 100 µM
TGI (HOP-92 NSCLC): > 100 µM
TGI (CAKI-1 renal): > 100 µM
TGI (HOP-62 NSCLC): > 100 µM
TGI (786-0 renal): > 100 µM
TGI (EKVX NSCLC): > 100 µM
TGI (CCRF-CEM leukemia): > 100 µM
TGI (IGROV1 ovarian): > 100 µM

O=C1c2ccccc2C(=O)N1CCn1ccc(NC(c2ccccc2)(c2ccccc2)c2ccccc2)nc1=O
TGI (SK-MEL-5 melanoma): 31.2 µM
TGI (HOP-92 NSCLC): 53.3 µM
TGI (CAKI-1 renal): > 100 µM
TGI (HOP-62 NSCLC): 33 µM
TGI (OVCAR-5 ovarian): 62.6 µM
TGI (786-0 renal): > 100 µM
TGI (EKVX NSCLC): > 100 µM
TGI (CCRF-CEM leukemia): 59.3 µM
TGI (IGROV1 ovarian): 58.4 µM

CC(C)C(CCl)NC(=O)c1cccc(C(=O)N[C@H](CCl)C(C)C)n1 (stereo in doubt)
TGI (SK-MEL-5 melanoma): > 100 µM
TGI (HOP-92 NSCLC): > 100 µM
TGI (CAKI-1 renal): > 100 µM
TGI (HOP-62 NSCLC): > 100 µM
TGI (OVCAR-5 ovarian): > 100 µM
TGI (786-0 renal): > 100 µM
TGI (EKVX NSCLC): > 100 µM
TGI (CCRF-CEM leukemia): > 100 µM
TGI (IGROV1 ovarian): > 100 µM

CC(=O)CCn1ncc(Cl)c(Cl)c1=O
TGI (SK-MEL-5 melanoma): 33.5 µM
TGI (HOP-92 NSCLC): 34.1 µM
TGI (CAKI-1 renal): 3.66 µM
TGI (HOP-62 NSCLC): 35.4 µM
TGI (OVCAR-5 ovarian): 33.2 µM
TGI (786-0 renal): 54.9 µM
TGI (EKVX NSCLC): 36.1 µM
TGI (CCRF-CEM leukemia): > 100 µM
TGI (IGROV1 ovarian): 35.9 µM

CSc1nc(=O)n(CCC#N)nc1SC
TGI (SK-MEL-5 melanoma): 43 µM
TGI (CAKI-1 renal): > 100 µM
TGI (HOP-62 NSCLC): > 100 µM
TGI (OVCAR-5 ovarian): > 100 µM
TGI (T-47D breast): 62.7 µM
TGI (786-0 renal): 44.6 µM
TGI (EKVX NSCLC): > 100 µM
TGI (IGROV1 ovarian): > 100 µM

Nc1nc(Cl)cc(NCCCCCCCCNc2cc(Cl)nc(N)n2)n1
TGI (SK-MEL-5 melanoma): 13 µM
TGI (HOP-92 NSCLC): 85.4 µM
TGI (CAKI-1 renal): 44.7 µM
TGI (HOP-62 NSCLC): > 100 µM
TGI (786-0 renal): > 100 µM
TGI (EKVX NSCLC): > 100 µM
TGI (CCRF-CEM leukemia): > 100 µM
TGI (IGROV1 ovarian): > 100 µM

CN1CC(=O)N2Cc3ccccc3-n3cccc3C2C1 (centres undefined)
TGI (SK-MEL-5 melanoma): > 100 µM
TGI (CAKI-1 renal): > 100 µM
TGI (HOP-62 NSCLC): > 100 µM
TGI (OVCAR-5 ovarian): > 100 µM
TGI (786-0 renal): > 100 µM
TGI (EKVX NSCLC): > 100 µM
TGI (IGROV1 ovarian): > 100 µM

O=c1/c(=C/c2ccccc2[N+](=O)[O-])sc2nnc(-c3ccco3)n12
TGI (SK-MEL-5 melanoma): 34.4 µM
TGI (HOP-92 NSCLC): > 100 µM
TGI (CAKI-1 renal): > 100 µM
TGI (HOP-62 NSCLC): 39.2 µM
TGI (OVCAR-5 ovarian): > 100 µM
TGI (786-0 renal): > 100 µM
TGI (EKVX NSCLC): > 100 µM
TGI (CCRF-CEM leukemia): 49.8 µM
TGI (IGROV1 ovarian): 56.3 µM

CCOC(=O)C(C#N)C1=CC(=O)C(=O)c2ccc(OC)cc21 (centres undefined)
TGI (SK-MEL-5 melanoma): 28.8 µM
TGI (CAKI-1 renal): 72.2 µM
TGI (HOP-62 NSCLC): 51.7 µM
TGI (OVCAR-5 ovarian): 40.5 µM
TGI (T-47D breast): 34.5 µM
TGI (786-0 renal): 64.9 µM
TGI (EKVX NSCLC): 51.8 µM
TGI (CCRF-CEM leukemia): > 100 µM
TGI (IGROV1 ovarian): 35.2 µM

CC1(C)CC(=O)C(C=NC(=S)c2ccccc2)=C(O)C1
TGI (SK-MEL-5 melanoma): > 100 µM
TGI (HOP-92 NSCLC): > 100 µM
TGI (CAKI-1 renal): > 100 µM
TGI (HOP-62 NSCLC): > 100 µM
TGI (OVCAR-5 ovarian): > 100 µM
TGI (786-0 renal): > 100 µM
TGI (EKVX NSCLC): > 100 µM
TGI (CCRF-CEM leukemia): > 100 µM
TGI (IGROV1 ovarian): > 100 µM

OC(CC1SCCCS1)c1ccccc1 (centres undefined)
TGI (SK-MEL-5 melanoma): > 100 µM
TGI (CAKI-1 renal): > 100 µM
TGI (HOP-62 NSCLC): > 100 µM
TGI (OVCAR-5 ovarian): > 100 µM
TGI (786-0 renal): > 100 µM
TGI (EKVX NSCLC): > 100 µM
TGI (CCRF-CEM leukemia): > 100 µM
TGI (IGROV1 ovarian): > 100 µM

COC(=O)C(C(=O)c1ccccc1)C(C(=O)C(=O)Nc1ccc(OC)cc1OC)C(=O)C(=O)c1ccc(C)cc1 (centres undefined)
TGI (SK-MEL-5 melanoma): > 100 µM
TGI (CAKI-1 renal): > 100 µM
TGI (HOP-62 NSCLC): > 100 µM
TGI (OVCAR-5 ovarian): > 100 µM
TGI (786-0 renal): > 100 µM
TGI (EKVX NSCLC): > 100 µM
TGI (CCRF-CEM leukemia): > 100 µM
TGI (IGROV1 ovarian): > 100 µM

Cc1cn2c(=O)c3ncn(C4OC(CO)C(O)C4O)c3n(C)c2n1 (centres undefined)
TGI (SK-MEL-5 melanoma): > 100 µM
TGI (HOP-92 NSCLC): > 100 µM
TGI (CAKI-1 renal): > 100 µM
TGI (OVCAR-5 ovarian): > 100 µM
TGI (786-0 renal): > 100 µM
TGI (EKVX NSCLC): > 100 µM
TGI (CCRF-CEM leukemia): > 100 µM
TGI (IGROV1 ovarian): > 100 µM

CC(=O)CCn1c(=S)sc2ccccc21
TGI (SK-MEL-5 melanoma): > 100 µM
TGI (HOP-92 NSCLC): > 100 µM
TGI (CAKI-1 renal): > 100 µM
TGI (HOP-62 NSCLC): > 100 µM
TGI (OVCAR-5 ovarian): > 100 µM
TGI (786-0 renal): > 100 µM
TGI (EKVX NSCLC): > 100 µM
TGI (CCRF-CEM leukemia): > 100 µM
TGI (IGROV1 ovarian): > 100 µM

Clc1ccc2c(c1)[nH]c1c2nc2ccccn21
GI50 (SK-MEL-5 melanoma): 39.9 µM and 16.4 µM
TGI (SK-MEL-5 melanoma): > 100 µM and 30.2 µM
GI50 (HOP-62 NSCLC): 78 µM and 24.6 µM
TGI (HOP-62 NSCLC): > 100 µM and 55.6 µM
GI50 (OVCAR-5 ovarian): 38.8 µM and 16.5 µM
TGI (OVCAR-5 ovarian): > 100 µM and 30.1 µM
TGI (786-0 renal): 37.5 µM and 33.1 µM
GI50 (EKVX NSCLC): 51.9 µM and 21.6 µM
TGI (EKVX NSCLC): > 100 µM and 63.2 µM
GI50 (CCRF-CEM leukemia): 22.8 µM and 7.18 µM
TGI (CCRF-CEM leukemia): 71.3 µM and 48.9 µM
TGI (IGROV1 ovarian): 85.8 µM and > 100 µM

COc1ccc2occ(CCC(=O)O)c2c1
TGI (SK-MEL-5 melanoma): > 100 µM
TGI (HOP-92 NSCLC): > 100 µM
TGI (CAKI-1 renal): > 100 µM
TGI (HOP-62 NSCLC): > 100 µM
TGI (786-0 renal): > 100 µM
TGI (EKVX NSCLC): > 100 µM
TGI (CCRF-CEM leukemia): > 100 µM
TGI (IGROV1 ovarian): > 100 µM

CCC12CCCN(Cc3ccccc3)C1c1c(n(C)c3ccccc13)CC2 (centres undefined)
TGI (SK-MEL-5 melanoma): 184 µM
TGI (HOP-92 NSCLC): > 253 µM
TGI (CAKI-1 renal): > 253 µM
TGI (HOP-62 NSCLC): > 253 µM
TGI (786-0 renal): > 253 µM
TGI (EKVX NSCLC): > 253 µM
TGI (CCRF-CEM leukemia): > 253 µM
TGI (IGROV1 ovarian): > 253 µM
